Experimental data as given in publication PMC8550792, “Evolution of kinase polypharmacology across HSP90 drug discovery” (Cell Chemical Biology, 2021).

Assays:
Assay in all cases: biochemical
Type in all cases: biochemical
[1] = target: T1, 382 unique human kinases (Homo sapiens, UniProt Q9BQI3); conditions: EIF2AK1, compound at 10 uM, duplicate values; for remaining activity at 10 µM: read-out: % Enzyme Activity (relative to DMSO controls)
T1 construct: purchased Reaction Biology (HotSpot contract assay)
T1 sequence (Q9BQI3 whole entry): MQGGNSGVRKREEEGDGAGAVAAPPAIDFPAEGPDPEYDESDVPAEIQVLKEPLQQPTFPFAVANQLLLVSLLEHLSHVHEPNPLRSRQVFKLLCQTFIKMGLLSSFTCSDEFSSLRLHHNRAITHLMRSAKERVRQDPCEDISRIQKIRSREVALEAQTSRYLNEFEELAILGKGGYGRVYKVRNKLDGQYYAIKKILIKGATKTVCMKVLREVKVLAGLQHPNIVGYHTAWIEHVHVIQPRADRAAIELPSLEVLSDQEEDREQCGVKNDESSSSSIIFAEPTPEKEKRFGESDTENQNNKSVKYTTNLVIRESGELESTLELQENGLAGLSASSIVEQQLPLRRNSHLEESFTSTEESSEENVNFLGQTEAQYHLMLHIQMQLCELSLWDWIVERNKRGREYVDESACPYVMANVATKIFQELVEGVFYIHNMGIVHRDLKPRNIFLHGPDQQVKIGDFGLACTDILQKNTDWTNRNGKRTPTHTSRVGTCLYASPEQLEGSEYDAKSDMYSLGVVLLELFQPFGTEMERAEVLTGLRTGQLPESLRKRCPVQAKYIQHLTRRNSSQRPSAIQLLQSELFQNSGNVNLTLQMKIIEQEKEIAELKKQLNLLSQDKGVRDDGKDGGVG

[2] = target: T2, 382 unique human kinases (Homo sapiens, UniProt P07949, A883F); conditions: kinase RET (A883F), compound 10 uM; for remaining activity at 10 µM: read-out: % Enzyme Activity (relative to DMSO controls)
T2 construct: purchased Reaction Biology (HotSpot contract assay)
T2 sequence (P07949 29-1114 A883F): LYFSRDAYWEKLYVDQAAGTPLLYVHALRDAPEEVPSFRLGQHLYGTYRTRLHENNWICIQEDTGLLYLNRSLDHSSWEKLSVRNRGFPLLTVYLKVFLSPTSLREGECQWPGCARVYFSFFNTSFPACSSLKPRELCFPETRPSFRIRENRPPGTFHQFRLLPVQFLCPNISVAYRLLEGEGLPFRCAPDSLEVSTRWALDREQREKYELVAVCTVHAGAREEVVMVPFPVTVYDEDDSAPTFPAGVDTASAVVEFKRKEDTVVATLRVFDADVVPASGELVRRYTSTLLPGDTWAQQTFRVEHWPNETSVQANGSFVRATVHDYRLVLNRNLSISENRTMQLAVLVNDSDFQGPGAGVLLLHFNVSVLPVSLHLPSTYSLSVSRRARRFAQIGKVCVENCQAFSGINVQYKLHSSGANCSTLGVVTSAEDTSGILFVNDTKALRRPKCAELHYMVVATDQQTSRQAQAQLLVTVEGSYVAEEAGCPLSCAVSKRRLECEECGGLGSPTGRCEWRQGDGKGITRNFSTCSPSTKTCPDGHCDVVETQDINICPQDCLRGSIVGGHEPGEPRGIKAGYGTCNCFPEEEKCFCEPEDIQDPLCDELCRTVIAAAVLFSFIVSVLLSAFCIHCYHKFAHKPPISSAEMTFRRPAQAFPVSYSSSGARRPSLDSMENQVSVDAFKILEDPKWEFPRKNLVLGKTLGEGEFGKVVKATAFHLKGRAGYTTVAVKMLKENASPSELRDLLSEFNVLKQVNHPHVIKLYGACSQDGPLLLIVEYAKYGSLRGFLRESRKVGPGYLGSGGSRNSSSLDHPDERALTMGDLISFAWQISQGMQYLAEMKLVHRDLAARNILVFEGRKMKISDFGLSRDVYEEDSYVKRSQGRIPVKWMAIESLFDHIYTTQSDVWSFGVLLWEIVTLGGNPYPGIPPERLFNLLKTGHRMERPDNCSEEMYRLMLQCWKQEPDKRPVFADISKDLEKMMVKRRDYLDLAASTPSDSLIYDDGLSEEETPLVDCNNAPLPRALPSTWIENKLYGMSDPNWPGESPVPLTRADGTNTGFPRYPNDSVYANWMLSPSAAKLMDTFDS

[3] = target: T3, 382 unique human kinases (Homo sapiens, UniProt Q15569); conditions: TESK1, compound at 10 uM, duplicate values; for remaining activity at 10 µM: read-out: % Enzyme Activity (relative to DMSO controls)
T3 construct: purchased Reaction Biology (HotSpot contract assay)
T3 sequence (Q15569 whole entry): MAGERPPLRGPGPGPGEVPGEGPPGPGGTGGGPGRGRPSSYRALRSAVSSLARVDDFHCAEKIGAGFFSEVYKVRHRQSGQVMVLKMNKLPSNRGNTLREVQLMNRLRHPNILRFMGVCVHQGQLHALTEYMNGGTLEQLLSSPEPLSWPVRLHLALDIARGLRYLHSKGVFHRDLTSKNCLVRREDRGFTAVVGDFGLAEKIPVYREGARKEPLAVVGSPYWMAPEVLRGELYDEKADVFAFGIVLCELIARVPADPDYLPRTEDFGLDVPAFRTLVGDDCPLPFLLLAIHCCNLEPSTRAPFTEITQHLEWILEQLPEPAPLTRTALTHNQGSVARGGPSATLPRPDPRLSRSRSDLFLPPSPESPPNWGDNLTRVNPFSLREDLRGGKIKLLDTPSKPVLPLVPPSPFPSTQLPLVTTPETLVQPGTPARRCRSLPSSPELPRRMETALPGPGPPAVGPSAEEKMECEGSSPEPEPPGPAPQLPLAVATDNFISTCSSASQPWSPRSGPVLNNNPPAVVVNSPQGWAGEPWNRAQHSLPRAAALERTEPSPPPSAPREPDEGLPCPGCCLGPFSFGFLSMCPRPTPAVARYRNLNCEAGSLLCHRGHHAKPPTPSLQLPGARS

[4] = target: T4, 382 unique human kinases (Homo sapiens, UniProt O75385); conditions: ULK1, 10 uM; for remaining activity at 10 µM: read-out: % Enzyme Activity (relative to DMSO controls)
T4 construct: purchased Reaction Biology (HotSpot contract assay)
T4 sequence (O75385 1-1050): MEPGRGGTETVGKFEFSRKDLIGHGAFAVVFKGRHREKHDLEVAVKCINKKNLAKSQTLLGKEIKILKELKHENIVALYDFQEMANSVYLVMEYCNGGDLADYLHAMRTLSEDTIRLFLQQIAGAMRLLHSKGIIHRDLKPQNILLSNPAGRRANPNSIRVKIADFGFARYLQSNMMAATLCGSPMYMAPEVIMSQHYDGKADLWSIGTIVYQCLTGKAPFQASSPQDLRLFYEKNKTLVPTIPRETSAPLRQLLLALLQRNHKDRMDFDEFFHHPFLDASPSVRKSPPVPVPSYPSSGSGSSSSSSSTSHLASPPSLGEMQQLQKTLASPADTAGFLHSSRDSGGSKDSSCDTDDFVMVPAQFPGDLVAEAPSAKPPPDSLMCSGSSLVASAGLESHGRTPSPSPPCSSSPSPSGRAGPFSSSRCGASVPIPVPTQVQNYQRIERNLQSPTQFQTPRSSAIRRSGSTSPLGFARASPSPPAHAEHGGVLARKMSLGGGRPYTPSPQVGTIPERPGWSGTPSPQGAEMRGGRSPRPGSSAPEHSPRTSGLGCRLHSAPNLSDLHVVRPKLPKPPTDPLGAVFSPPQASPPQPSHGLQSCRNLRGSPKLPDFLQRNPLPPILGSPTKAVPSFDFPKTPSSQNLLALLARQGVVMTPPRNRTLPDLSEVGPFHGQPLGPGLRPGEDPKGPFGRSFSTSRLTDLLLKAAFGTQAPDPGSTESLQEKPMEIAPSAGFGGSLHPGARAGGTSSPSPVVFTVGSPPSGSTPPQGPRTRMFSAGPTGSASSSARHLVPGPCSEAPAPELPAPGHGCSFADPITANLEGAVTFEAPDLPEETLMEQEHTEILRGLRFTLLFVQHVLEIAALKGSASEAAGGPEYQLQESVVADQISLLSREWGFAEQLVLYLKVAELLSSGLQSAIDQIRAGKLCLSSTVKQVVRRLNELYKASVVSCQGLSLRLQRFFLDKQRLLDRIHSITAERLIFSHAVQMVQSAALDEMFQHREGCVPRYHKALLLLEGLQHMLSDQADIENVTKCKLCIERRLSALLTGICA

[5] = target: T5, 382 unique human kinases (Homo sapiens, UniProt Q9UF33); conditions: kinase EPHA6, compound 10 uM; for remaining activity at 10 µM: read-out: % Enzyme Activity (relative to DMSO controls)
T5 construct: purchased Reaction Biology (HotSpot contract assay)
T5 sequence (Q9UF33 23-1036): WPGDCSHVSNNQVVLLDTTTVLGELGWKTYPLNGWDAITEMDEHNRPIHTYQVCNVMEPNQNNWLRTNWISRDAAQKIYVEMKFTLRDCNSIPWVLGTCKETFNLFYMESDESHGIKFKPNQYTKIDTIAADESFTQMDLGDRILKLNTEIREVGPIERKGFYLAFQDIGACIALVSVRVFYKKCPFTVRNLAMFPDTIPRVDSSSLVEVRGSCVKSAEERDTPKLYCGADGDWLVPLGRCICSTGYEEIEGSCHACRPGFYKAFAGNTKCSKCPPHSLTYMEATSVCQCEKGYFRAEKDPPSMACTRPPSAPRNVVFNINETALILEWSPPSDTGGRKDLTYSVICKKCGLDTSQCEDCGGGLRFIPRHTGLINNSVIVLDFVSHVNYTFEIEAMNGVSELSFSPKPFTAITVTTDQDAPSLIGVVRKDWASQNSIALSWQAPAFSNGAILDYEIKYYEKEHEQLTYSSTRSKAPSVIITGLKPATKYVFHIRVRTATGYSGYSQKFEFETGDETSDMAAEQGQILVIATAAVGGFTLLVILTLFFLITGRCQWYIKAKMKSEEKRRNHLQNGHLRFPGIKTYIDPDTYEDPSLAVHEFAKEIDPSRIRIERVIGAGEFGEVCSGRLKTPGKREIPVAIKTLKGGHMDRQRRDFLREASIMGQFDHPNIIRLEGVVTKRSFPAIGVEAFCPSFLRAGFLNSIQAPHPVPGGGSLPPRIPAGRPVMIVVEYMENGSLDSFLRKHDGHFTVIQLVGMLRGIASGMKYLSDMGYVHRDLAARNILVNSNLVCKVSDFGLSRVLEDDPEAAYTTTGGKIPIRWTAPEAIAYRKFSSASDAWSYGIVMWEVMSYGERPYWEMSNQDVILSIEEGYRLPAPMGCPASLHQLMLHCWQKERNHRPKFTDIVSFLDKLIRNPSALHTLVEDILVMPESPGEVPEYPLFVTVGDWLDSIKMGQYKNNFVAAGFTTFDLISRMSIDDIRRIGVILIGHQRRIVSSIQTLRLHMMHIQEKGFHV

[6] = target: T6, 382 unique human kinases (Homo sapiens, UniProt Q96SB4); conditions: SRPK1, 10 uM; for remaining activity at 10 µM: read-out: % Enzyme Activity (relative to DMSO controls)
T6 construct: purchased Reaction Biology (HotSpot contract assay)
T6 sequence (Q96SB4 whole entry): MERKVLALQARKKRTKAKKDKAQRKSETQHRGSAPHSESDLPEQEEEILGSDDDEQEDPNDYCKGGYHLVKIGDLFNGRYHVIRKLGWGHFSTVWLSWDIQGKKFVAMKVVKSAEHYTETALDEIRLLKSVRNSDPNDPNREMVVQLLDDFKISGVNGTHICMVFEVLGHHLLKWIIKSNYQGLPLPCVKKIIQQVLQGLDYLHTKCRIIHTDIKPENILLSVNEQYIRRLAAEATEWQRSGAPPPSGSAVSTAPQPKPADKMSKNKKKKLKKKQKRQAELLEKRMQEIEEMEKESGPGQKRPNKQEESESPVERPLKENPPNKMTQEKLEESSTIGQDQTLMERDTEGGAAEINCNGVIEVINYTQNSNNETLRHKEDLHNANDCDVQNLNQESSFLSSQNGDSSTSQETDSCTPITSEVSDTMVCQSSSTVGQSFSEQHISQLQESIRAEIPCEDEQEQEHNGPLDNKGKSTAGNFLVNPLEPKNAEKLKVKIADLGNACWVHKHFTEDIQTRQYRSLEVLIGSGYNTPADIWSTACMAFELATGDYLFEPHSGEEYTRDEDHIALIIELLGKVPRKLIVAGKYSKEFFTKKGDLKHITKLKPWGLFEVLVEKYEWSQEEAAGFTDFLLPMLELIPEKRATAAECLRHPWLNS

[7] = target: T7, 382 unique human kinases (Homo sapiens, UniProt P08581, Y1230C); conditions: c-MET (Y1230C), 10 uM; for remaining activity at 10 µM: read-out: % Enzyme Activity (relative to DMSO controls)
T7 construct: purchased Reaction Biology (HotSpot contract assay)

[8] = target: T8, 382 unique human kinases (Homo sapiens, UniProt P10721, D816V/V560G); conditions: c-Kit (V560G/D816V), [ATP] 20 µM, compound 10 uM; for remaining activity at 10 µM: read-out: % Enzyme Activity (relative to DMSO controls)
T8 construct: purchased Reaction Biology (HotSpot contract assay)
T8 sequence (P10721 26-976 V560G/D816V): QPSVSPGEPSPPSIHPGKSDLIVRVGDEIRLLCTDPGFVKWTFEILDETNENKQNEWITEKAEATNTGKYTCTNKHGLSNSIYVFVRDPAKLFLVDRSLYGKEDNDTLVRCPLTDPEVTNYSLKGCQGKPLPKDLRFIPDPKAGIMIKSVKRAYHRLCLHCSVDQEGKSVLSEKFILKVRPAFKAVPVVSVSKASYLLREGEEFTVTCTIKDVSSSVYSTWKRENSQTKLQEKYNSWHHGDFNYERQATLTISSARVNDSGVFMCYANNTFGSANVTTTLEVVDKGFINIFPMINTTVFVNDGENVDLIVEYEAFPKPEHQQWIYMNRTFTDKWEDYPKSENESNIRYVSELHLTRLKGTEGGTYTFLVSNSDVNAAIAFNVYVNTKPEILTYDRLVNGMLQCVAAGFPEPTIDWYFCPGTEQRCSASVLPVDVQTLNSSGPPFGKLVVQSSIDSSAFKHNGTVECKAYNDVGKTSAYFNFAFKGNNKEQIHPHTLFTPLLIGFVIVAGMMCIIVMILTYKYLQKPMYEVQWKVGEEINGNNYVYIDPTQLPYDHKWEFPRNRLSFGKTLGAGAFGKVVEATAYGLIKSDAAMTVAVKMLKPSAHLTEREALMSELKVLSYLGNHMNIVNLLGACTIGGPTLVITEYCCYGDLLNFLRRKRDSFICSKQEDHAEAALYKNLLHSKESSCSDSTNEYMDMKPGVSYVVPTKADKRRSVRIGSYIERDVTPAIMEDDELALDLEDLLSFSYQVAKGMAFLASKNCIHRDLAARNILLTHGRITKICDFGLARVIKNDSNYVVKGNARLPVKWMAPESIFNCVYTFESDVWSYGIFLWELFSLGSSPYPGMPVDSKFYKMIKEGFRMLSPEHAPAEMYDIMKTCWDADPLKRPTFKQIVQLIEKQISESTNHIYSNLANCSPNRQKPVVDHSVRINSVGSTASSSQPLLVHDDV

[9] = target: T9, 382 unique human kinases (Homo sapiens, UniProt P49841); conditions: GSK3b, [ATP] 10 µM, compound 10 uM; for remaining activity at 10 µM: read-out: % Enzyme Activity (relative to DMSO controls)
T9 construct: purchased Reaction Biology (HotSpot contract assay)
T9 sequence (P49841 whole entry): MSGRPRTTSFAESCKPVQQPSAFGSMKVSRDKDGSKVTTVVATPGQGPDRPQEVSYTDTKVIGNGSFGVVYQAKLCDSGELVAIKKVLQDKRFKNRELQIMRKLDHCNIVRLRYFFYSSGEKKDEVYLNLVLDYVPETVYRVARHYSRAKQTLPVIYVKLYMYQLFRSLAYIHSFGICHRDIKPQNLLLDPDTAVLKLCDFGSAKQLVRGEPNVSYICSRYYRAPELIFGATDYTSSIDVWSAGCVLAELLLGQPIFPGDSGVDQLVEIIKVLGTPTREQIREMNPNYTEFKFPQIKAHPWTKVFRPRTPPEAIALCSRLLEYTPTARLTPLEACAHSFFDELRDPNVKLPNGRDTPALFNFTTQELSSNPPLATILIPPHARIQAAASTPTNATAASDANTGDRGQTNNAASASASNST

[10] = target: T10, 382 unique human kinases (Homo sapiens, UniProt P42685); conditions: FRK/PTK5, [ATP] 30 µM, compound 10 uM; for remaining activity at 10 µM: read-out: % Enzyme Activity (relative to DMSO controls)
T10 construct: purchased Reaction Biology (HotSpot contract assay)
T10 sequence (P42685 whole entry): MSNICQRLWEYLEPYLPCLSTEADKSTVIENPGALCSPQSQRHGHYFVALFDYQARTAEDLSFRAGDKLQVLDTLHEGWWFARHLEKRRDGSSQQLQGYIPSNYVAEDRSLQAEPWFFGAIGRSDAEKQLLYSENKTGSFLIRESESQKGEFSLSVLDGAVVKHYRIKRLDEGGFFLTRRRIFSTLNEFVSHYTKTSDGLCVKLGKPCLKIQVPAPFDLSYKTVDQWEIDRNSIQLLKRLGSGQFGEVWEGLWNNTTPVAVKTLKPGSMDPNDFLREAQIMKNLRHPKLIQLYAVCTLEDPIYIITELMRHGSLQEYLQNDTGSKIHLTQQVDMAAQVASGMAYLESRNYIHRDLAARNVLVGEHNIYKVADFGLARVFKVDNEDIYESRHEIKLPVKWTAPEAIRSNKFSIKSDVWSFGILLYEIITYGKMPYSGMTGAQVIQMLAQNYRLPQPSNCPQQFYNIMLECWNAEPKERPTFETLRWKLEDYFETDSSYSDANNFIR

SMILES: CC(C)c1cc(-c2n[nH]c(=O)n2-c2ccc3c(ccn3C)c2)c(O)cc1O [Ganetespib (STA9090)]
- remaining activity at 10 µM [1]: 110%
- remaining activity at 10 µM [2]: 83.7%
- remaining activity at 10 µM [3]: 101%
- remaining activity at 10 µM [4]: 73%
- remaining activity at 10 µM [5]: 91%

SMILES: CC(C)c1cc(-c2n[nH]c(=O)n2-c2ccc3c(ccn3C)c2)c(O)cc1O [Ganetespib]
- remaining activity at 10 µM [6]: 90.7%
- remaining activity at 10 µM [7]: 97%
- remaining activity at 10 µM [8]: 24.3%
- remaining activity at 10 µM [9]: 29.4%
- remaining activity at 10 µM [10]: 18.1%

SMILES: CCNC(=O)c1noc(-c2cc(C(C)C)c(O)cc2O)c1-c1ccc(CN2CCOCC2)cc1 [Luminespib (AUY-922)]
- % Enzyme Activity (relative to DMSO controls) [1]: 122.69%
- remaining activity at 10 µM [1]: 127%
- % Enzyme Activity (relative to DMSO controls) [2]: 95.34%
- remaining activity at 10 µM [2]: 96.4%
- % Enzyme Activity (relative to DMSO controls) [3]: 104.01%
- remaining activity at 10 µM [3]: 104%
- % Enzyme Activity (relative to DMSO controls) [4]: 102.69%
- remaining activity at 10 µM [4]: 104%
- % Enzyme Activity (relative to DMSO controls) [5]: 91.89%
- remaining activity at 10 µM [5]: 92%

SMILES: CCNC(=O)c1noc(-c2cc(C(C)C)c(O)cc2O)c1-c1ccc(CN2CCOCC2)cc1 [Luminespib]
- % Enzyme Activity (relative to DMSO controls) [6]: 101.35%
- remaining activity at 10 µM [6]: 101%
- % Enzyme Activity (relative to DMSO controls) [7]: 102.31%
- remaining activity at 10 µM [7]: 103%
- % Enzyme Activity (relative to DMSO controls) [8]: 61.63%
- remaining activity at 10 µM [8]: 61.7%
- % Enzyme Activity (relative to DMSO controls) [9]: 110.01%
- remaining activity at 10 µM [9]: 110%
- % Enzyme Activity (relative to DMSO controls) [10]: 63.67%
- remaining activity at 10 µM [10]: 64.5%
